# Literature values in patent publication US9125929B2, “Trauma therapy” (Hibernation Therapeutics, A KF LLC, priority 2006, dated 2015).
# Experiments:
# [1] = target: human NK(1) receptor (Homo sapiens, UniProt P25103); details: read-out: K(i) for the human NK(1) receptor
# [2] = target: T1, NK(2) receptor (Homo sapiens, UniProt P21452); details: NK(1) over NK(2)
# T1 sequence (P21452 1-398): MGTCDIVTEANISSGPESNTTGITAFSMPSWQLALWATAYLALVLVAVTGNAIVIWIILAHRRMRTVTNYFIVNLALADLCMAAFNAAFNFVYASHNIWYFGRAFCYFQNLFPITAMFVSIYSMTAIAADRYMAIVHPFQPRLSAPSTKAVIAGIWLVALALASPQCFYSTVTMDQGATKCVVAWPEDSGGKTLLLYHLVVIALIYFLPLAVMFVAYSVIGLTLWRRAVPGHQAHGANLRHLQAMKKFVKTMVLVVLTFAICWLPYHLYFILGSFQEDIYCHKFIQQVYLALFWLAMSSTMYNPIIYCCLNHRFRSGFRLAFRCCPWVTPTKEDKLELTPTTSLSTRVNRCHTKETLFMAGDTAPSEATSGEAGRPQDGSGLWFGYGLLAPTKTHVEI
# [3] = target: T2, NK(3) receptor (Homo sapiens, UniProt P29371); details: NK(1) over NK(3)
# T2 sequence (P29371 1-465): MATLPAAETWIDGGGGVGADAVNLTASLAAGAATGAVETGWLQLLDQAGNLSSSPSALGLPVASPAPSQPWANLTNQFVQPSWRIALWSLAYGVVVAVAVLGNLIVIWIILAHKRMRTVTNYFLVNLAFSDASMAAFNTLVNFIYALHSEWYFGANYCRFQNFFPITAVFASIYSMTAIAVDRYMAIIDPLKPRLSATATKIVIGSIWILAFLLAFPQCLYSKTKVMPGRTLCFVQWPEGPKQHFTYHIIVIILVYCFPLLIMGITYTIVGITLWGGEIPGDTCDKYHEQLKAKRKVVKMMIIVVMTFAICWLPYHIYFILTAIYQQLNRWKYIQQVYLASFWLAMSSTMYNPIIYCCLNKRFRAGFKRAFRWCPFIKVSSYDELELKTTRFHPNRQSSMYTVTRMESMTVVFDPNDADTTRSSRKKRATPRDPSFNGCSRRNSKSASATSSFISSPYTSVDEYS
# [4] = orally and/or intravenous, 10, 25, 50 and 100 mg/kg body weight
# [5] = 400 mg daily tablets
# human NK(1) receptor, sequence (P25103 whole entry): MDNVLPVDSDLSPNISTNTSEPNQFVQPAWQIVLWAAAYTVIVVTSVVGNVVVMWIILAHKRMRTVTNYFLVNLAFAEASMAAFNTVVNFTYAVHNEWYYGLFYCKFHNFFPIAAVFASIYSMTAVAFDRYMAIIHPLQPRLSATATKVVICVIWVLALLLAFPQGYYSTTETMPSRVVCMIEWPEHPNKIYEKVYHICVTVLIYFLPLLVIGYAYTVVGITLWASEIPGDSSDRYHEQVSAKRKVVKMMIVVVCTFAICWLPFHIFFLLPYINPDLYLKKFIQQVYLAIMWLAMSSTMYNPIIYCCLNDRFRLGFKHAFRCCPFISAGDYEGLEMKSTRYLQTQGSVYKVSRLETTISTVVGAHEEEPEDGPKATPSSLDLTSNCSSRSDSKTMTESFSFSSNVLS
structure (smiles),measurement,setting,value
"Cc1cccc(C)c1NC(=O)C[C@H]1CCN(C(=O)c2cc(C(F)(F)F)cc(C(F)(F)F)c2)[C@@H](Cc2ccccc2)C1.O=C(O)C[C@H](O)C(=O)O (relative stereo) [R116301, (2R-trans)-4-[1-[3,5-bis(trifluoromethyl)benzoyl]-2-(phenylmethyl)-4-piperidinyl]-N-(2,6-dimethylphenyl)-1-acetamide(S)-Hydroxybutanedioate]",Ki,[1],0.45 nM
same,selectivity toward NK(2) receptor,[2],over 200 fold
same,selectivity toward NK(3) receptor,[3],over 200 fold
"NC(=O)c1ncn([C@@H]2O[C@H](CO)[C@@H](O)[C@H]2O)c1N [Acadesine, 5-amino-4-imidazole carboxamide ribonucleoside]",safety in humans,[4],safe
OCCN(CCO)c1nc(N2CCCCC2)c2nc(N(CCO)CCO)nc(N3CCCCC3)c2n1 [Dipyridamole],plasma level,[5],about 0.4 microgram/ml
same,plasma level (concentration),[5],~800 nM
"Nc1ncnc2c1ncn2[C@@H]1O[C@H](CO)[C@@H](O)[C@H]1O [adenosine, 6-amino-9-β-D-ribofuranosyl-9H-purine]",half life in the blood,,about 10 seconds
